Where two headings read alike, the source gives them in different places.
Experiments:
[1] = biological target: CB1 receptor (Homo sapiens, UniProt P21554); assay: Calcium mobilization assay, agonist mode, CHO expressing CB1 and Gα16; assay type: cell-based
Description: (§1) Chinese hamster ovarian (CHO) cells collected from the American Type Culture Collection were maintained in Ham’s F-12K (Kaighn’s) supplemented with 100 mg/L streptomycin, 100 mg/L penicillin, and 10% fetal bovine serum (FBS) in a humidified atmosphere of 5% CO2 at 37 °C. CHO cells were co-transfected with plasmids encoding CB1 or CB2 and Gα16 by electroporation. To establish stable cell lines, transfected cells were seeded on 10 cm dishes with 40 μg/mL blasticidin and 1 mg/mL G418 in culture medium after 24 h. The selection medium was substituted once every 3 days until colonies formed. A solitary colony was obtained, propagated, and assessed using a calcium mobilization assay to verify the function and expression of the transfected genes.
(§2) 3 × 10^4 cells/well were employed to seed cells onto 96-well plates, which were subsequently incubated throughout the night. […] For antagonist mode, the extra dye was washed out and 50 μL of HBSS with test compounds, DMSO (negative control), or AM630 (positive control) was introduced. […] To be noticed, each experiment has been independently replicated three times, with three repetitions and eight gradients each time.
(§3) The collected data were processed with GraphPad Prism software (GraphPad). […] Means ± SEM were computed utilizing this software. The analyses were evaluated by the Student t test. When the p value is smaller than 0.05, the result is statistically significant.

[2] = biological target: T1, CB2 receptor (Homo sapiens, UniProt P34972); assay: Calcium mobilization assay, agonist mode, CHO expressing CB2 and Gα16; assay type: cell-based; settings: for SI, selectivity index for the CB2, SI = EC50(CB1)/EC50(CB2): agonist mode; for CB1 and CB2 biological activity (in words): CB1 and CB2 calcium mobilization assays, up to 10 μM
T1 construct: expressed in transfected cells
Description: as §1, §2, §3

[3] = agonist activity, CHO expressing CB1, mean ± SEM, read-out: CB1 EC50
[4] = agonist activity, CHO expressing CB2, three independent assays, mean ± SEM, read-out: CB2 EC50
[5] = single independent experiment, replicate 1, read-out: CB2 agonist(μM) replicate 1
[6] = single independent experiment, replicate 2, read-out: CB2 agonist(μM) replicate 2
[7] = single independent experiment, replicate 3, read-out: CB2 agonist(μM) replicate3

Sequence of CB1 receptor (P21554 whole entry): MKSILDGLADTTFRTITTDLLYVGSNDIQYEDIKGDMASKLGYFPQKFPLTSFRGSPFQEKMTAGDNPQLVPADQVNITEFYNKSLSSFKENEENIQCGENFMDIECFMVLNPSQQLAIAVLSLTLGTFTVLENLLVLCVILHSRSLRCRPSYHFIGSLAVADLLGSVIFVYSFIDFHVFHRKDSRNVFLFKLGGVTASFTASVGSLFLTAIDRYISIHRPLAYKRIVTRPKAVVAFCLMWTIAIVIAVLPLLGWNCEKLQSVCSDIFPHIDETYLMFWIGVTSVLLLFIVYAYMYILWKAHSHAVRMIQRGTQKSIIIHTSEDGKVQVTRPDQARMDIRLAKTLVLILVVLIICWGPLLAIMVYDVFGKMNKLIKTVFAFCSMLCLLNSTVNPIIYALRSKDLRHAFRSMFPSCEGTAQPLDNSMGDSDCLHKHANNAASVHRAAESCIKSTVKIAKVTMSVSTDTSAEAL
T1 sequence (P34972 whole entry): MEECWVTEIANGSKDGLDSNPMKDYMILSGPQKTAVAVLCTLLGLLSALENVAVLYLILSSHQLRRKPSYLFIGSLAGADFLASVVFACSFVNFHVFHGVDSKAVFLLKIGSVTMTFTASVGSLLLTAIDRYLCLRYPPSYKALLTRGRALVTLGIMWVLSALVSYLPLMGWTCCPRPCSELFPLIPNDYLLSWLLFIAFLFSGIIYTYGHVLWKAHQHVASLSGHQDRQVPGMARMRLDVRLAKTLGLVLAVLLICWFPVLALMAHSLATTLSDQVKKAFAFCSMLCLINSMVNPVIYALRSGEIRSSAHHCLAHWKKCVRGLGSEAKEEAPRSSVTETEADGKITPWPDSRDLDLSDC

| EC50 [1, 3] [µM] | EC50 [2, 4] [µM] | SI, selectivity index for the CB2, SI = EC50(CB1)/EC50(CB2) [2] | EC50 [2, 5] [µM] | EC50 [2, 6] [µM] | EC50 [2, 7] [µM] | SMILES | other results |
| --- | --- | --- | --- | --- | --- | --- | --- |
| > 10 | 2.26 ± 0.48 | >4 | 1.67 | 1.92 | 3.2 | N#Cc1ccccc1COc1ccccc1C=C1SC(=O)N(C2CCCC2)C1=O [Compound 5, 2-((2-((3-Cyclopentyl-2,4-dioxothiazolidin-5-ylidene)methyl)phenoxy)methyl) Benzonitrile] |  |
| > 10 | 0.37 ± 0.26 | >27 | 0.188 | 0.026 | 0.886 | CC(C)N1C(=O)SC(=Cc2ccccc2OCc2ccccc2F)C1=O [Compound 6, 5-(2-((2-Fluorobenzyl)oxy)benzylidene)-3-isopropylthiazolidine-2,4-dione] |  |
| > 10 | > 10 |  |  |  |  | CC(C)N1C(=O)SC(=Cc2ccccc2OCc2cccc(Br)c2)C1=O [Compound 7, 5-(2-((3-Bromobenzyl)oxy)benzylidene)-3-isopropylthiazolidine-2,4-dione] | CB1 and CB2 biological activity (in words) [2]: do not show biological activities |
| > 10 | > 10 |  |  |  |  | COc1cc(COc2ccccc2C=C2SC(=O)N(C(C)C)C2=O)cc(OC)c1 [Compound 9, 5-(2-((3,5-Dimethoxybenzyl)oxy)benzylidene)-3-isopropylthiazolidine-2,4-dione] | CB1 and CB2 biological activity (in words) [2]: do not show biological activities |
| > 10 | 1.6 ± 0.21 | >6 | 1.78 | 1.18 | 1.83 | CC(C)CN1C(=O)SC(=Cc2ccccc2OCc2ccccc2F)C1=O [Compound 10, 5-(2-((2-Fluorobenzyl)oxy)benzylidene)-3-isobutylthiazolidine-2,4-dione] |  |
| > 10 | > 10 |  |  |  |  | COc1cc(COc2ccccc2C=C2SC(=O)N(CC(C)C)C2=O)cc(OC)c1 [Compound 11, 5-(2-((3,5-Dimethoxybenzyl)oxy)benzylidene)-3-isobutylthiazolidine-2,4-dione] |  |

Continued, compound first:

| SMILES | EC50 [1, 3] [µM] | EC50 [2, 4] [µM] | SI, selectivity index for the CB2, SI = EC50(CB1)/EC50(CB2) [2] | EC50 [2, 5] [µM] | EC50 [2, 6] [µM] | EC50 [2, 7] [µM] | other results |
| --- | --- | --- | --- | --- | --- | --- | --- |
| CC(C)N1C(=O)SC(=Cc2ccccc2OCc2ccccc2C#N)C1=O [Compound 1, 2-((2-((3-Isopropyl-2,4-dioxothiazolidin-5-ylidene)methyl)phenoxy)methyl) Benzonitrile] | > 10 | 3.12 ± 2.22 | >3 | 1.75 | 7.47 | 0.139 | bioactivity against CB1 (in words) ([1]; 10 μM): no bioactivity; response against CHO–CB2 by calcium assay ([2]; 10 μM): > 40% |
| CC(C)CN1C(=O)SC(=Cc2ccccc2OCc2ccccc2C#N)C1=O [Compound 2, 2-((2-((3-Isobutyl-2,4-dioxothiazolidin-5-ylidene)methyl)phenoxy)methyl) Benzonitrile] | > 10 | 3.22 ± 2.67 | >3 | 0.43 | 8.56 | 0.68 |  |
| CCCN1C(=O)SC(=Cc2ccccc2OCc2ccccc2C#N)C1=O [Compound 3, 2-((2-((2,4-Dioxo-3-propylthiazolidin-5-ylidene)methyl)phenoxy)methyl) Benzo Nitrile] | > 10 | > 10 |  |  |  |  |  |
| CCCCN1C(=O)SC(=Cc2ccccc2OCc2ccccc2C#N)C1=O [Compound 4, 2-((2-((3-Butyl-2,4-dioxothiazolidin-5-ylidene)methyl)phenoxy)methyl)benzo Nitrile] | > 10 | > 10 |  |  |  |  |  |
| CC(C)N1C(=O)SC(=Cc2ccccc2OCCN2CCOCC2)C1=O [Compound 8, 3-Isopropyl-5-(2-(2-morpholinoethoxy)benzylidene) Thiazolidine-2,4-dione] |  |  | 8 |  |  |  | EC50 ([1]; CB1 EC50, agonist activity, CHO expressing CB1, mean ± SEM): 0.75 ± 0.48 µM; EC50 ([1]; CB1 agonist(μM) replicate 1, single independent experiment, replicate 1): 0.455 µM; EC50 ([1]; CB1 agonist(μM) replicate 2, single independent experiment, replicate 2): 0.109 µM; EC50 ([1]; CB1 agonist(μM) replicate3, single independent experiment, replicate 3): 1.7 µM; EC50 ([2]; CB2 EC50, agonist activity, CHO expressing CB2, three independent assays, mean ± SEM): 0.09 ± 0.07 µM; EC50 ([2]; CB2 agonist(μM) replicate 1, single independent experiment, replicate 1): 0.227 µM; EC50 ([2]; CB2 agonist(μM) replicate 2, single independent experiment, replicate 2): 0.026 µM; EC50 ([2]; CB2 agonist(μM) replicate3, single independent experiment, replicate 3): 0.022 µM |

— publication PMC10623575, “Discovery of Potent and Selective CB2 Agonists Utilizing a Function-Based Computational Screening Protocol” (ACS Chemical Neuroscience, 2023)
